{
  "source": "patent US11767310B2",
  "about": "“Nicotinamide RIPK1 inhibitors” (AbbVie Inc., priority 2021, dated 2023)",
  "test_in_all_cases": "Kinase binding screen",
  "conditions_in_all_cases": "read-out: Percent Control at 100 nM Compound Concentration",
  "key": {"CAMK4": {"target": "CAMK4 (Homo sapiens (Human), UniProt Q16566)", "sequence (Q16566 whole entry)": "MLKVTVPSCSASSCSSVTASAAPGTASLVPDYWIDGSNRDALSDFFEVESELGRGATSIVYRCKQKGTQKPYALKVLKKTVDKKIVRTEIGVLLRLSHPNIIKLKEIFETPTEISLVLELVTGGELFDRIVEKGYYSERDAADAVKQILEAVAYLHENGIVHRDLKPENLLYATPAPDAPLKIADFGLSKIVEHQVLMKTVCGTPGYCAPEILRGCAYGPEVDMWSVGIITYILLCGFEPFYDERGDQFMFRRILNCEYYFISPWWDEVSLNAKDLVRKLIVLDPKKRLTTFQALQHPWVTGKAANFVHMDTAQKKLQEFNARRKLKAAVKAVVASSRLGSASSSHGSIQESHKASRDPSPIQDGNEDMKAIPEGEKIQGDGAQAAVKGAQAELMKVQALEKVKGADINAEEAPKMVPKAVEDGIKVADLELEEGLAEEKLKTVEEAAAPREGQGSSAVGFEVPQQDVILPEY"}, "FGFR4": {"target": "FGFR4 (Homo sapiens (Human), UniProt P22455)", "sequence (P22455 22-802)": "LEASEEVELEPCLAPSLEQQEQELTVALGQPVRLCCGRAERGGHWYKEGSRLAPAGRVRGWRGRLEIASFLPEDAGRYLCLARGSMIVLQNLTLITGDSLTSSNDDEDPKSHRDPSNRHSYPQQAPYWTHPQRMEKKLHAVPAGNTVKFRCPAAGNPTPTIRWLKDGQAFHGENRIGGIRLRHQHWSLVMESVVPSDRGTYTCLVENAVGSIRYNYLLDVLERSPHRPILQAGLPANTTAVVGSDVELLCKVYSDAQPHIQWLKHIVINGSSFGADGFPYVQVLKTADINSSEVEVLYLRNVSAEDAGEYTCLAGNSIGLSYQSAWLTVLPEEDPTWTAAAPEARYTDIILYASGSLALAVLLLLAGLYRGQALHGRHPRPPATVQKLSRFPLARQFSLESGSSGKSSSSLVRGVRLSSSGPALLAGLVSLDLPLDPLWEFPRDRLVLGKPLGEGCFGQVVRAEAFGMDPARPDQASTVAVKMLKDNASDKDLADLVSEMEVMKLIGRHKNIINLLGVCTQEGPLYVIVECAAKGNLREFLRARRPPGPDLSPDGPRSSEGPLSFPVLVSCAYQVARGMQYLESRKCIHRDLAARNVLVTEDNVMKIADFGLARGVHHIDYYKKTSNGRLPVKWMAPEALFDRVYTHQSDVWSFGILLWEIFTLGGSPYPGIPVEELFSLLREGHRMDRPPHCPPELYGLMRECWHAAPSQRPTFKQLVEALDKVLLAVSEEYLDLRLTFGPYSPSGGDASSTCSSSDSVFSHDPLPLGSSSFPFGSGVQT"}, "PKMYT1": {"target": "PKMYT1 (Homo sapiens (Human), UniProt Q99640)"}, "LATS2": {"target": "LATS2 (Homo sapiens (Human), UniProt Q9NRM7)"}, "KIT(V559D,V654A)": {"target": "KIT(V559D,V654A) (Homo sapiens (Human), UniProt P10721, V559D/V654A)"}, "YSK1": {"target": "YSK1 (Homo sapiens (Human), UniProt O00506)"}, "LRRK2(G2019S)": {"target": "LRRK2(G2019S) (Homo sapiens (Human), UniProt Q5S007, G2019S)"}, "SYK": {"target": "SYK (Homo sapiens (Human), UniProt P43405)"}, "STK16": {"target": "STK16 (Homo sapiens (Human), UniProt O75716)", "sequence (O75716 whole entry)": "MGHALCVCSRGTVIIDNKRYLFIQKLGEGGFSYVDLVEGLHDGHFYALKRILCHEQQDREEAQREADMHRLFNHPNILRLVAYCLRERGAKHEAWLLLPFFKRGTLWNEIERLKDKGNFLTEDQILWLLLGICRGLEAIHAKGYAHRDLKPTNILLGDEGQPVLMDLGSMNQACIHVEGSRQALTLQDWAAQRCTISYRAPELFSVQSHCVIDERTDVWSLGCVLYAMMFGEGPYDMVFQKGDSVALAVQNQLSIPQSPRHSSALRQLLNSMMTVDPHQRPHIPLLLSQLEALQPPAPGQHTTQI"}, "PIK3CA(E545A)": {"target": "PIK3CA(E545A) (Homo sapiens (Human), UniProt P42336, E545A)"}, "PRKCH": {"target": "PRKCH (Homo sapiens (Human), UniProt P24723)", "sequence (P24723 whole entry)": "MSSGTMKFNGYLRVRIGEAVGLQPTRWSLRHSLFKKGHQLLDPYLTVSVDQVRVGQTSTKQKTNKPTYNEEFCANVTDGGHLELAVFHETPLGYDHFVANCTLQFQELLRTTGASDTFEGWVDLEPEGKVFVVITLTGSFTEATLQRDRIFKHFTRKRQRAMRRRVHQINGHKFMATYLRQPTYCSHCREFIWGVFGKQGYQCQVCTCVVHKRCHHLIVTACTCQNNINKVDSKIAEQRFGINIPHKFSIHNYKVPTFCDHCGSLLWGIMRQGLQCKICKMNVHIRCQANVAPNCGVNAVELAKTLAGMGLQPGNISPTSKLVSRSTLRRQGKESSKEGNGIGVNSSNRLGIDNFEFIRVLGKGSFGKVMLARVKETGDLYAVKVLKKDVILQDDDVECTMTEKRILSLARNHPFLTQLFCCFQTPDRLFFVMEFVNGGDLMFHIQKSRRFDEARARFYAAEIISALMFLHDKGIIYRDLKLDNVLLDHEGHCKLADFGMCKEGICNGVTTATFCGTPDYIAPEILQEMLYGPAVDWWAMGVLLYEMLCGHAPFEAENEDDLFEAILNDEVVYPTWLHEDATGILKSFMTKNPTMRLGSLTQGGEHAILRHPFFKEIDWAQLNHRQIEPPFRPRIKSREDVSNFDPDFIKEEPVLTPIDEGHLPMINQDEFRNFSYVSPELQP"}, "MAPKAPK5": {"target": "MAPKAPK5 (Homo sapiens (Human), UniProt Q8IW41)"}, "ASK1": {"target": "ASK1 (Homo sapiens (Human), UniProt Q99683)"}, "CHEK2": {"target": "CHEK2 (Homo sapiens (Human), UniProt O96017)", "sequence (O96017 whole entry)": "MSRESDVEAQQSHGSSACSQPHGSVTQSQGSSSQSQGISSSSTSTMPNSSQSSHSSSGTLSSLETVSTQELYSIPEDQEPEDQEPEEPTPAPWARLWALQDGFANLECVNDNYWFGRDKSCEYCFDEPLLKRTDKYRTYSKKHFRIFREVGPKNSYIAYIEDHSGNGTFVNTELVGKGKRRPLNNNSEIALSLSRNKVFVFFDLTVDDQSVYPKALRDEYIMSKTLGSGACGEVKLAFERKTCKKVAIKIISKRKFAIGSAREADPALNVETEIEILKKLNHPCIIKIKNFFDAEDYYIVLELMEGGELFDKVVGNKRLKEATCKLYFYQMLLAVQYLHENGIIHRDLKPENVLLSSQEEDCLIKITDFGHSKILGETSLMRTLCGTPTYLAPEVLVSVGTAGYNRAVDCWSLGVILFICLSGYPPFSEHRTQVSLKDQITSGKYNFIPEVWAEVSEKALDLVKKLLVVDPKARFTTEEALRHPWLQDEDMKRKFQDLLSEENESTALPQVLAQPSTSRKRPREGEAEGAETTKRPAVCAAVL"}, "ABL1-nonphosphorylated": {"target": "ABL1-nonphosphorylated (Homo sapiens (Human), UniProt P00519)"}, "SNRK": {"target": "SNRK (Homo sapiens (Human), UniProt Q9NRH2)"}, "[1]": {"target": "RPS6KA5(Kin.Dom.1-N-terminal) (Homo sapiens (Human), UniProt O75582)", "sequence (O75582 49-318)": "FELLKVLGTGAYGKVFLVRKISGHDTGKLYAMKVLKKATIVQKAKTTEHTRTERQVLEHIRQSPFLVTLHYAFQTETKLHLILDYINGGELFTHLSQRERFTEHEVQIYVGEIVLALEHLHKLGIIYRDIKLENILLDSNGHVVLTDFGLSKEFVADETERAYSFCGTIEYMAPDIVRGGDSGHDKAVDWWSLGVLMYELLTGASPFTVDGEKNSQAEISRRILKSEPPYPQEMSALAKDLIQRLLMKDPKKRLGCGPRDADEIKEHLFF"}, "MST3": {"target": "MST3 (Homo sapiens (Human), UniProt Q9Y6E0)", "sequence (Q9Y6E0 whole entry)": "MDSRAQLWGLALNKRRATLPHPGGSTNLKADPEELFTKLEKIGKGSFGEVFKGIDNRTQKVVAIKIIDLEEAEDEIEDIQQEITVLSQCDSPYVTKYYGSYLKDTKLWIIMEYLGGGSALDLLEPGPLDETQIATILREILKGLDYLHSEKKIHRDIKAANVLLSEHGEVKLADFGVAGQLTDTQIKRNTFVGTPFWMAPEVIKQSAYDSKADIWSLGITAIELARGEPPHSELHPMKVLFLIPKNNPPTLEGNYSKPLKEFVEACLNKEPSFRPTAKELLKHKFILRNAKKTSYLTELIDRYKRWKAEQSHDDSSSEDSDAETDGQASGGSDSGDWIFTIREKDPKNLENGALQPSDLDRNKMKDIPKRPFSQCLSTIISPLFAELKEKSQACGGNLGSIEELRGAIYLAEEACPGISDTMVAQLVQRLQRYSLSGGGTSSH"}, "TSSK1B": {"target": "TSSK1B (Homo sapiens (Human), UniProt Q9BXA7)"}, "ITK": {"target": "ITK (Homo sapiens (Human), UniProt Q08881)"}, "TAOK2": {"target": "TAOK2 (Homo sapiens (Human), UniProt Q9UL54)", "sequence (Q9UL54 whole entry)": "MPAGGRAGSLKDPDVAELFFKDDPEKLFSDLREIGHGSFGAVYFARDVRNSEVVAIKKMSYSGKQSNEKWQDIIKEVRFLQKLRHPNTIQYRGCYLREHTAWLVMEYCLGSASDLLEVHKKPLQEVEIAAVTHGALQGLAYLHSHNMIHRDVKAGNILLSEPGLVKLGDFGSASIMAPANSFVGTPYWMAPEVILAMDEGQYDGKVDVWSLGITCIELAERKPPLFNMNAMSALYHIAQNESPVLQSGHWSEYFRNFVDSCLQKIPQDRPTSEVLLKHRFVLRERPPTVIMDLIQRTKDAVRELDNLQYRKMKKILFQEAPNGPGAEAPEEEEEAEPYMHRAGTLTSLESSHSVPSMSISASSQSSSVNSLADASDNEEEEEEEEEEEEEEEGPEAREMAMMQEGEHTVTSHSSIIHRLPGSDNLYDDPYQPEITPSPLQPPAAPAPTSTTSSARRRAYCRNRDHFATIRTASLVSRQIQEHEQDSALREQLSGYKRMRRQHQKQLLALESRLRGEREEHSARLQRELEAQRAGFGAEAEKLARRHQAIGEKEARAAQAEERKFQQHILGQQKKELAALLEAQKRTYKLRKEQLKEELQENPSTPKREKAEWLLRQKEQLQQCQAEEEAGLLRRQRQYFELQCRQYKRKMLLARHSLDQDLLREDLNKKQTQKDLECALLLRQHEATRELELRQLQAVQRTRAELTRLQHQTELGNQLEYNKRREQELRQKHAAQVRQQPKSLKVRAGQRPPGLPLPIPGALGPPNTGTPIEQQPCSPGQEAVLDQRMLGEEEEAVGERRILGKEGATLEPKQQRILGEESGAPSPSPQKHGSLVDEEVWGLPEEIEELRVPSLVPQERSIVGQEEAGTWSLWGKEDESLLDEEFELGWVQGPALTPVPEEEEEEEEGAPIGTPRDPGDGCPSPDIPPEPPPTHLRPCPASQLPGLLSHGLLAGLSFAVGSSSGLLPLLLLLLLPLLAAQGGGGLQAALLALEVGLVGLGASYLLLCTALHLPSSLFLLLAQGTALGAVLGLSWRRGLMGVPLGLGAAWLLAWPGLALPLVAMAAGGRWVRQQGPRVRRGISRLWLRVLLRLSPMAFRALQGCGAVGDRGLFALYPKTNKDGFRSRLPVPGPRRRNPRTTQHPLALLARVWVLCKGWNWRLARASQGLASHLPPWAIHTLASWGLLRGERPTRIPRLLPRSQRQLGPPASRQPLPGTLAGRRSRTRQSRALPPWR"}, "EPHA1": {"target": "EPHA1 (Homo sapiens (Human), UniProt P21709)"}, "EGFR(S752-I759del)": {"target": "EGFR(S752-I759del) (Homo sapiens (Human), UniProt P00533, DEL752-759)"}, "BLK": {"target": "BLK (Homo sapiens (Human), UniProt P51451)"}, "TRKC": {"target": "TRKC (Homo sapiens (Human), UniProt Q16288)"}, "PRKD2": {"target": "PRKD2 (Homo sapiens (Human), UniProt Q9BZL6)"}, "[2]": {"target": "ABL1(T315I)-phosphorylated (Homo sapiens (Human), UniProt P00519, T315I)"}, "CASK": {"target": "CASK (Homo sapiens (Human), UniProt O14936)"}},
  "note": "Like-named read-outs stand apart in the source and are kept apart here.",
  "data": [
    {"smiles": "CN(C[C@@H](O)Cc1ccccc1)C(=O)c1cncc(C#Cc2cnn(C(F)F)c2)c1", "note": "[Example 2, (S)-5-((1-(difluoromethyl)-1H-pyrazol-4-yl)ethynyl)-N-(2-hydroxy-3-phenylpropyl)-N-methylnicotinamide]", "values": [
      {"measurement": "remaining activity at 0.1 µM", "setting": "CAMK4; CAMK4", "value": 100, "unit": "%"},
      {"measurement": "remaining activity at 0.1 µM", "setting": "FGFR4; FGFR4", "value": 100, "unit": "%"},
      {"measurement": "remaining activity at 0.1 µM", "setting": "PKMYT1; PKMYT1", "value": 99, "unit": "%"},
      {"measurement": "remaining activity at 0.1 µM", "setting": "LATS2; LATS2", "value": 98, "unit": "%"},
      {"measurement": "remaining activity at 0.1 µM", "setting": "KIT(V559D,V654A); KIT(V559D,V654A)", "value": 94, "unit": "%"},
      {"measurement": "remaining activity at 0.1 µM", "setting": "YSK1; YSK1", "value": 100, "unit": "%"},
      {"measurement": "remaining activity at 0.1 µM", "setting": "LRRK2(G2019S); LRRK2(G2019S)", "value": 100, "unit": "%"},
      {"measurement": "remaining activity at 0.1 µM", "setting": "SYK; SYK", "value": 97, "unit": "%"},
      {"measurement": "remaining activity at 0.1 µM", "setting": "STK16; STK16", "value": 98, "unit": "%"},
      {"measurement": "remaining activity at 0.1 µM", "setting": "PIK3CA(E545A); PIK3CA(E545A)", "value": 89, "unit": "%"},
      {"measurement": "remaining activity at 0.1 µM", "setting": "PRKCH; PRKCH", "value": 100, "unit": "%"},
      {"measurement": "remaining activity at 0.1 µM", "setting": "MAPKAPK5; MAPKAPK5", "value": 94, "unit": "%"},
      {"measurement": "remaining activity at 0.1 µM", "setting": "ASK1; ASK1", "value": 88, "unit": "%"},
      {"measurement": "remaining activity at 0.1 µM", "setting": "CHEK2; CHEK2", "value": 100, "unit": "%"},
      {"measurement": "remaining activity at 0.1 µM", "setting": "ABL1-nonphosphorylated; ABL1-nonphosphorylated", "value": 72, "unit": "%"},
      {"measurement": "remaining activity at 0.1 µM", "setting": "SNRK; SNRK", "value": 100, "unit": "%"},
      {"measurement": "remaining activity at 0.1 µM", "setting": "[1]; RPS6KA5(Kin.Dom.1-N-terminal)", "value": 91, "unit": "%"},
      {"measurement": "remaining activity at 0.1 µM", "setting": "MST3; MST3", "value": 100, "unit": "%"},
      {"measurement": "remaining activity at 0.1 µM", "setting": "TSSK1B; TSSK1B", "value": 88, "unit": "%"},
      {"measurement": "remaining activity at 0.1 µM", "setting": "ITK; ITK", "value": 99, "unit": "%"},
      {"measurement": "remaining activity at 0.1 µM", "setting": "TAOK2; TAOK2", "value": 84, "unit": "%"},
      {"measurement": "remaining activity at 0.1 µM", "setting": "EPHA1; EPHA1", "value": 100, "unit": "%"},
      {"measurement": "remaining activity at 0.1 µM", "setting": "EGFR(S752-I759del); EGFR(S752-I759del)", "value": 100, "unit": "%"},
      {"measurement": "remaining activity at 0.1 µM", "setting": "BLK; BLK", "value": 85, "unit": "%"},
      {"measurement": "remaining activity at 0.1 µM", "setting": "TRKC; TRKC", "value": 100, "unit": "%"},
      {"measurement": "remaining activity at 0.1 µM", "setting": "PRKD2; PRKD2", "value": 79, "unit": "%"},
      {"measurement": "remaining activity at 0.1 µM", "setting": "[2]; ABL1(T315I)-phosphorylated", "value": 80, "unit": "%"},
      {"measurement": "remaining activity at 0.1 µM", "setting": "CASK; CASK", "value": 99, "unit": "%"}
    ]},
    {"smiles": "CN(C[C@H](Cc1ccccc1)OP(=O)(O)O)C(=O)c1cncc(C#Cc2cnn(C(F)F)c2)c1", "note": "[Example 19, (S)-1-(5-((1-(difluoromethyl)-1H-pyrazol-4-yl)ethynyl)-N-methylnicotinamido)-3-phenylpropan-2-yl dihydrogen phosphate]", "values": [
      {"measurement": "remaining activity at 0.1 µM", "setting": "CAMK4", "value": 100, "unit": "%"},
      {"measurement": "remaining activity at 0.1 µM", "setting": "FGFR4", "value": 100, "unit": "%"},
      {"measurement": "remaining activity at 0.1 µM", "setting": "PKMYT1", "value": 100, "unit": "%"},
      {"measurement": "remaining activity at 0.1 µM", "setting": "LATS2", "value": 100, "unit": "%"},
      {"measurement": "remaining activity at 0.1 µM", "setting": "KIT(V559D,V654A)", "value": 100, "unit": "%"},
      {"measurement": "remaining activity at 0.1 µM", "setting": "YSK1", "value": 97, "unit": "%"},
      {"measurement": "remaining activity at 0.1 µM", "setting": "LRRK2(G2019S)", "value": 93, "unit": "%"},
      {"measurement": "remaining activity at 0.1 µM", "setting": "SYK", "value": 93, "unit": "%"},
      {"measurement": "remaining activity at 0.1 µM", "setting": "STK16", "value": 92, "unit": "%"},
      {"measurement": "remaining activity at 0.1 µM", "setting": "PIK3CA(E545A)", "value": 94, "unit": "%"},
      {"measurement": "remaining activity at 0.1 µM", "setting": "PRKCH", "value": 91, "unit": "%"},
      {"measurement": "remaining activity at 0.1 µM", "setting": "MAPKAPK5", "value": 96, "unit": "%"},
      {"measurement": "remaining activity at 0.1 µM", "setting": "ASK1", "value": 100, "unit": "%"},
      {"measurement": "remaining activity at 0.1 µM", "setting": "CHEK2", "value": 100, "unit": "%"},
      {"measurement": "remaining activity at 0.1 µM", "setting": "ABL1-nonphosphorylated", "value": 96, "unit": "%"},
      {"measurement": "remaining activity at 0.1 µM", "setting": "SNRK", "value": 100, "unit": "%"},
      {"measurement": "remaining activity at 0.1 µM", "setting": "[1]", "value": 100, "unit": "%"},
      {"measurement": "remaining activity at 0.1 µM", "setting": "MST3", "value": 100, "unit": "%"},
      {"measurement": "remaining activity at 0.1 µM", "setting": "TSSK1B", "value": 76, "unit": "%"},
      {"measurement": "remaining activity at 0.1 µM", "setting": "ITK", "value": 100, "unit": "%"},
      {"measurement": "remaining activity at 0.1 µM", "setting": "TAOK2", "value": 77, "unit": "%"},
      {"measurement": "remaining activity at 0.1 µM", "setting": "EPHA1", "value": 100, "unit": "%"},
      {"measurement": "remaining activity at 0.1 µM", "setting": "EGFR(S752-I759del)", "value": 100, "unit": "%"},
      {"measurement": "remaining activity at 0.1 µM", "setting": "BLK", "value": 96, "unit": "%"},
      {"measurement": "remaining activity at 0.1 µM", "setting": "TRKC", "value": 68, "unit": "%"},
      {"measurement": "remaining activity at 0.1 µM", "setting": "PRKD2", "value": 100, "unit": "%"},
      {"measurement": "remaining activity at 0.1 µM", "setting": "[2]", "value": 92, "unit": "%"},
      {"measurement": "remaining activity at 0.1 µM", "setting": "CASK", "value": 94, "unit": "%"}
    ]}
  ]
}
